#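 Test compounds were applied to cells in 96-well plates for 48 hours at 5 doses. At the GI50, growth is halved. TGI marks complete inhibition of growth.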
# Tests used:
# Experiment in all cases: growth of human tumour cells (NCI), 48 h
# UO-31 renal = tested on: UO-31 renal
# NCI-H522 lung = tested on: NCI-H522 lung
# OVCAR-8 ovarian = tested on: OVCAR-8 ovarian
# HS 578T breast = tested on: HS 578T breast
# COLO 205 colon = tested on: COLO 205 colon
# SK-MEL-2 melanoma = tested on: SK-MEL-2 melanoma
# UACC-257 melanoma = tested on: UACC-257 melanoma
# U251 CNS = tested on: U251 CNS
# NCI-H226 lung = tested on: NCI-H226 lung
# RPMI-8226 leukemia = tested on: RPMI-8226 leukemia
# SF-539 CNS = tested on: SF-539 CNS
# NCI-H23 lung = tested on: NCI-H23 lung
# BT-549 breast = tested on: BT-549 breast
# NCI-H460 lung = tested on: NCI-H460 lung
# ACHN renal = tested on: ACHN renal
# M14 melanoma = tested on: M14 melanoma
# A549 NSCLC = tested on: A549 NSCLC
# TK-10 renal = tested on: TK-10 renal
# OVCAR-3 ovarian = tested on: OVCAR-3 ovarian
# MDA-MB-435 = tested on: MDA-MB-435
# CAKI-1 renal = tested on: CAKI-1 renal
# A498 renal = tested on: A498 renal
# NCI/ADR-RES ovarian = tested on: NCI/ADR-RES ovarian
# MOLT-4 leukemia = tested on: MOLT-4 leukemia
# SF-268 CNS = tested on: SF-268 CNS
# SK-MEL-28 melanoma = tested on: SK-MEL-28 melanoma
# LOX IMVI melanoma = tested on: LOX IMVI melanoma
# MALME-3M melanoma = tested on: MALME-3M melanoma
compound,measurement,setting,value
CC(=O)OC1CCC2(C)C(CCC3C4CC=C(C(C)=O)C4(C)OC(=O)CC32)C1 (stereo not given),TGI,UO-31 renal,7.89 µM
same,GI50,NCI-H522 lung,1.22 µM
same,TGI,NCI-H522 lung,2.64 µM
same,GI50,OVCAR-8 ovarian,2.13 µM
same,TGI,OVCAR-8 ovarian,7.49 µM
same,GI50,HS 578T breast,3.79 µM
same,TGI,HS 578T breast,29.8 µM
same,GI50,COLO 205 colon,1.64 µM
same,TGI,COLO 205 colon,3.02 µM
same,GI50,SK-MEL-2 melanoma,2.91 µM
same,TGI,SK-MEL-2 melanoma,8.42 µM
same,GI50,UACC-257 melanoma,1.42 µM
same,TGI,UACC-257 melanoma,2.98 µM
same,GI50,U251 CNS,10.1 µM
same,TGI,U251 CNS,21.8 µM
same,GI50,NCI-H226 lung,1.95 µM
same,TGI,NCI-H226 lung,4.32 µM
same,GI50,RPMI-8226 leukemia,1.79 µM
same,TGI,RPMI-8226 leukemia,4.86 µM
same,GI50,SF-539 CNS,1.8 µM
same,TGI,SF-539 CNS,3.55 µM
same,GI50,NCI-H23 lung,2.9 µM
same,TGI,NCI-H23 lung,10.6 µM
same,GI50,BT-549 breast,1.58 µM
same,TGI,BT-549 breast,3.08 µM
same,GI50,NCI-H460 lung,5.02 µM
same,TGI,NCI-H460 lung,19.3 µM
same,GI50,ACHN renal,1.3 µM
same,TGI,ACHN renal,2.61 µM
same,GI50,M14 melanoma,1.71 µM
same,TGI,M14 melanoma,3.51 µM
same,GI50,A549 NSCLC,7.22 µM
same,TGI,A549 NSCLC,23.1 µM
same,GI50,TK-10 renal,2.05 µM
same,TGI,TK-10 renal,4.77 µM
same,GI50,OVCAR-3 ovarian,1.63 µM
same,TGI,OVCAR-3 ovarian,3.04 µM
same,GI50,MDA-MB-435,1.71 µM
same,TGI,MDA-MB-435,4.66 µM
same,GI50,CAKI-1 renal,2.54 µM
same,TGI,CAKI-1 renal,9 µM
same,GI50,A498 renal,6.59 µM
same,TGI,A498 renal,19.9 µM
same,GI50,NCI/ADR-RES ovarian,3.45 µM
same,TGI,NCI/ADR-RES ovarian,13 µM
same,GI50,MOLT-4 leukemia,2.29 µM
same,TGI,MOLT-4 leukemia,6.41 µM
same,GI50,SF-268 CNS,5.2 µM
same,TGI,SF-268 CNS,17.8 µM
same,GI50,SK-MEL-28 melanoma,1.74 µM
same,TGI,SK-MEL-28 melanoma,3.27 µM
same,GI50,LOX IMVI melanoma,1.61 µM
same,TGI,LOX IMVI melanoma,3.17 µM
same,GI50,MALME-3M melanoma,1.61 µM
same,TGI,MALME-3M melanoma,3.67 µM

# Source: PubChem BioAssay (NCI)
